Test results from patent US20240317732A1, “A NEW MOLECULAR SCAFFOLD FOR TARGETING HRPN13” (THE UNITED STATES OF AMERICA AS REPRESENTED BY THE …, priority 2021, published 2024).
Values belong to the compound of their own block, whether it stands above or below them.

Tests used:
RPMI 8226 cells = test: MTT cell metabolism / cell viability assay in RPMI 8226; type: cell-based; conditions: RPMI 8226, 48 hours, up to 40 μM
Protocol: Since previous hRpn13-targeting molecules induce apoptosis in multiple myeloma and colon cancer cells we tested whether XL5 restricts the RPMI 8226 multiple myeloma and HCT116 colon cancer cell lines by measuring metabolism with an MTT (3-(4,5-dimethylthiazol-2-yl)-2,5-diphenyltetrazolium bromide) assay. Experiments were also conducted in parallel with a HCT116 colon cancer cell line in which the exon encoding hRpn13 C88 is deleted, named trRpn13; this cell line expresses a truncated hRpn13 protein with a defective Pru and inability to bind the proteasome28. RPMI 8226 and WT (wild-type) or trRpn13 HCT116 cells seeded at 8,000 and 4,000 cells per well were treated with varying concentrations of XL5 extending to 40 μM and compared to cells incubated with equivalent amounts of DMSO vehicle control.
HCT116 WT or trRpn13 cells were seeded at 4,000 cells/well whereas RPMI 8226 cells were seeded at 8,000 cells/well with RPMI 1640 medium (no phenol red, Thermo Fisher Scientific 11835030) containing 2% fetal bovine serum in 96-well plates. Cells were treated with 0.4% DMSO (as a control) and this concentration was maintained with XL5, XL5-PROTACs XL5-VHL, XL5-VHL-2, XL5-CRBN, or XL5-IAP, and E3 ligands VHL-Ac, thalidomide (Selleckchem, catalog NO. S1193), or IAP-Bz at 10 μM, 20 μM, 30 μM or 40 μM concentration. After 48 hours, 0.35 mg/mL MTT was added for 4 hours of incubation. Stop solution (40% DMF, 10% SDS (W/V), 25 mM HCl, 2.5% acetic acid in H2O) was added to the cells and incubated overnight. Absorbance at 570 nm was measured by using CLARIOstar (BMG LABTECH).

hRpn13 / hRpn13-Pru = test: Immunoblot of hRpn13 species in RPMI 8226 cell lysates; type: cell-based, human; conditions: RPMI 8226 WT, 100 nM, 24 hours
Protocol: HCT116 WT, HCT116 trRpn13, RPMI 8226 or 293T cells were collected and washed with PBS followed by lysing in 1% Triton-TBS lysis buffer (50 mM Tris-HCl, pH 7.5, 150 mM NaCl, 1 mM PMSF) supplemented with protease inhibitor cocktail (Roche). Total protein concentration was determined by bicinchoninic acid (Pierce). Protein lysates were prepared in 1χ LDS (ThermoFisher, NP0007) buffer with 100 mM DTT and heating at 70° C. for 10 min, loaded onto 4-12% Bis-Tris polyacrylamide gels (Life Technologies), subjected to SDS-PAGE and transferred to Invitrolon polyvinylidene difluoride membranes (Life Technologies). The membranes were blocked in Tris-buffered saline with 0.1% Tween-20 (TBST) supplemented with 5% skim milk, incubated with primary antibody, washed in TBST, incubated with secondary antibody and washed extensively in TBST. Pierce™ ECL Western Blotting Substrate (32106; Thermo Fisher Scientific) or Amersham™ ECL™ Primer Western Blotting Detection Reagent (cytiva) was used for antibody signal detection.
To test whether the XL5-PROTACs cause ubiquitination and degradation of hRpn13, lysates from RPMI 8226 (FIG. 5C) cells treated with 40 μM XL5 orXL5-PROTAC compared to DMSO vehicle control were immunoprobed for hRpn13 and β-actin (loading control).

hRpn13 Pru [1] = target: T1, hRpn13 Pru (Homo sapiens (Human), UniProt Q16186); test: Isothermal titration calorimetry (ITC) of hRpn13 Pru binding; conditions: 25° C.
Protocol: ITC experiments were performed at 25° C. on a MicroCal iTC200 system (Malvern, PA, USA). hRpn13 Pru, XL5, XL5 derivative, or RA190 were prepared in buffer C. One aliquot of 0.5 μL followed by 17 or 18 aliquots of 2.1 μL of 200 μM hRpn13 Pru was injected at 750 r.p.m. into a calorimeter cell (volume […]) that contained 20 μM XL5, XL5 derivative, or RA190. Blank experiments were performed by replacing XL5, XL5 derivative, or RA190 with buffer in the cell and the resulting data subtracted from the experimental data during analyses. The integrated interaction heat values were normalized as a function of protein concentration and the data were fit with MicroCal Origin 7.0-based software implementing the “One Set of Sites” model to yield binding affinity Ka (1/Kd), stoichiometry, and other thermodynamic parameters. Dissociation constants (Kd) as determined by ITC as well as relative binding affinities of selected compounds are presented n Table 1, while additional information on named compounds including structures, synthesis, and characterization is presented in Examples 3-9: […]

hRpn13 Pru [2] = target: T1, hRpn13 Pru; test: Differential scanning fluorimetry, tryptophan quenching at 350 nm; type: binding; conditions: 1 μM hRpn13 Pru, 20° C.
Source text: We conducted in silico docking screens of commercial libraries containing in total 63 million compounds by using the hRpn13 Pru:hRpn2 structure and hRpn2-binding site of hRpn13 as a binding pocket. Twenty-two potential lead compounds were selected for validation by biophysical assays. hRpn13 W108 is partially exposed when free but buried by hRpn2, enabling tryptophan quenching by differential scanning fluorimetry (DSF at λ350) for assaying binding and this approach was used to screen for compound binding to this site. 20 μM compound (separately for twenty compounds) was incubated with 1 μM hRpn13 Pru and fluorescence emission at 350 nm measured. […] The compounds were separately added at 10-fold molar excess to 20 μM ^15N-labeled hRpn13 Pru and binding assessed at 25° C. by 2D NMR for samples dissolved in NMR buffer (20 mM sodium phosphate, 50 mM NaCl, 2 mM DTT, 10% DMSO-d6 (deuterated DMSO), pH 6.5). […] XL5 addition caused hRpn13 signals to shift from free state positions to an observable bound state whereas spectral changes were not induced by the other compounds tested. […]
DSF experiments were performed on a PrometheusNT.48 instrument (NanoTemper Technologies, Germany) at 20° C. […] Each sample was loaded into three high sensitivity capillaries (NanoTemper, cat #PR-C006) and the emission of intrinsic tryptophan fluorescence at 350 nm was monitored.

[3] = Reactivity in mouse serum by LC-MS; type: in vitro ADME; conditions: 0.2 μM, room temperature, 24-hour time period
Protocol: To test for covalent interaction, an hRpn13 Pru sample was incubated with 10-fold molar excess XL5 or DMSO (as a vehicle control) and subjected to liquid chromatography-mass spectrometry (LC-MS). […] To test for general reactivity of XL5 towards exposed cysteines, 40 μM XL5 was incubated at 4° C. for two hours with 2 mM reduced L-glutathione serving as representative of a non-specific interactor with exposed cysteines. XL5-ligated glutathione was detected at only 2% abundance (FIG. 2B). Under identical conditions, 40 μM RA190 reacted with 2 mM reduced L-glutathione to yield products with one or two molecules ligated at 14% or 30% abundance, respectively. We also tested XL5 reactivity by incubating it at 0.2 μM with mouse serum (BioIVT) and monitoring the effect by LC-MS over a 24-hour time period to find only 6% reduction in the unligated compound.
To check for reactivity of XL5 in mouse serum, 0.2 μM XL5 was mixed with mouse serum (BioIVT) and aliquots of the spiked mixture left at room temperature for 0, 4, 8 and 24 hours. For each time point, six samples were extracted using 75% acetonitrile and 0.075% formic acid. The supernatant was transferred to polypropylene injection vials for LC-MS analysis. […]

hRpn13 Pru [4] = target: T1, hRpn13 Pru; test: 2D NMR (1H,15N HSQC) binding to 15N-labeled hRpn13 Pru; conditions: assessed by ITC and NMR
Source text: We conducted in silico docking screens of commercial libraries containing in total 63 million compounds by using the hRpn13 Pru:hRpn2 structure and hRpn2-binding site of hRpn13 as a binding pocket. Twenty-two potential lead compounds were selected for validation by biophysical assays. hRpn13 W108 is partially exposed when free but buried by hRpn2, enabling tryptophan quenching by differential scanning fluorimetry (DSF at λ350) for assaying binding and this approach was used to screen for compound binding to this site. 20 μM compound (separately for twenty compounds) was incubated with 1 μM hRpn13 Pru and fluorescence emission at 350 nm measured. […] The compounds were separately added at 10-fold molar excess to 20 μM ^15N-labeled hRpn13 Pru and binding assessed at 25° C. by 2D NMR for samples dissolved in NMR buffer (20 mM sodium phosphate, 50 mM NaCl, 2 mM DTT, 10% DMSO-d6 (deuterated DMSO), pH 6.5). […]
For screening by ^1H, ^15N HSQC experiments, small molecule dissolved in DMSO-d6 was added to 20 μM or 250 μM ^15N-labeled hRpn13 Pru at a molar excess of 2-fold (for XL5) or 10-fold (for all compounds tested) in NMR buffer (20 mM sodium phosphate, 50 mM NaCl, 2 mM DTT, 10% DMSO-d6, pH 6.5). […] Three ^13C-half-filtered NOESY experiments were recorded with a 100 ms mixing time on asymmetrically labeled samples dissolved in NMR buffer. […]

T1 sequence (Q16186 1-150): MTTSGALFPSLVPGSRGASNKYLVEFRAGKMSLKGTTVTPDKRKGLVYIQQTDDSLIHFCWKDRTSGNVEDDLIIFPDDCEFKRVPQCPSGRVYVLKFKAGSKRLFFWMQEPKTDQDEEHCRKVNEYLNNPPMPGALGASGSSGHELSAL

Compound: CC(=O)N[C@H](C(=O)N1C[C@H](O)C[C@H]1C(=O)N[C@@H](C)c1ccc(-c2scnc2C)cc1)C(C)(C)C [VHL-Ac, reference compound]
metabolic activity / cell viability (MTT) (RPMI 8226 cells): did not affect metabolic activity

Compound: O=C1CCC(N2C(=O)c3ccccc3C2=O)C(=O)N1 (centres unmarked) [thalidomide, reference compound]
metabolic activity / cell viability (MTT) (RPMI 8226 cells): did not affect metabolic activity

Compound: CC(C)C[C@H](NC(=O)[C@H](CCc1ccccc1)NC(=O)CN1CCOCC1)C(=O)N[C@@H](Cc1ccccc1)C(=O)N[C@@H](CC(C)C)C(=O)[C@@]1(C)CO1 [carfilzomib, reference compound]
hRpn13-Pru level after proteasome inhibitor (hRpn13 / hRpn13-Pru): reduced levels of hRpn13-Pru

binding detected by ITC (hRpn13 Pru [1]): did not detect binding
Compound: Cl.N[C@@H](Cc1ccccc1)C(=O)N1C/C(=C/c2ccc(Cl)c(Cl)c2)C(=O)/C(=C\c2ccc(Cl)c(Cl)c2)C1 [RA190, reference compound]
tryptophan fluorescence emission quenching at 350 nm (hRpn13 Pru [2]): titration-dependent reduction in λ350 signal

reduction in the unligated compound in mouse serum [3]: 6%
Compound: Cc1ccc(C(=O)Nc2cccc(/C=C(\C#N)C(=O)Nc3ccccc3C(=O)O)c2)cc1 [XL5]

Kd (hRpn13 Pru [1]; 200 μM hRpn13 Pru into 20 μM compound, buffer C): 1740 ± 350 nM
change of affinity for hRpn13 Pru relative to XL5 (hRpn13 Pru [4]): little effect
Compound: CNc1ccc(C(=O)Nc2cccc(/C=C(\C#N)C(=O)Nc3ccccc3C(=O)O)c2)cc1 [XL24]
